# Measured values as given in EP3871678A1, “PRO-ANGIOGENIC COMPOUNDS” (UNIVERSITE DE BORDEAUX, priority 2020, dated 2021).
# What was measured:
# [1] = In vivo toxicity after subcutaneous injection of hydrogels (serum ALT, AST, LDH); parameters: species or system OF-1 female mice; settings: hydrogels injected subcutaneously in mice, serum markers up to day 21
# Protocol: (§1) 10-week-old OF-1 female mice (Charles Rivers, France) were used for this study. Before the bilateral subcutaneous injection of hydrogels, mice were anaesthetized using 4.5% isoflurane gas and maintained throughout surgery at 2.5% isoflurane with a face mask. The animals were depilated before surgery. The three different hydrogels were prepared as mentioned above and collected in 1 ml syringes, when the solution was in viscous form. The hydrogels were injected subcutaneously by 21-gauge needle on the dorsal side of the animals.
# The in vivo toxicity of the hydrogels formed from compounds 17, 20 and GNF was investigated by serum biochemical evaluation such as alanine aminotransferase (ALT Activity Assay Kit, Sigma-Aldrich, ref MAK052), aspartate aminotransaminase (AST Activity Assay Kit, Sigma-Aldrich, ref MAK055), and lactate dehydrogenase (LDH Assay Kit, Abcam, ref ab102526). At day 0 before surgery and three-time points after implantation (3, 7, and 21 days), blood was collected from retro-orbital sinus. The blood samples were allowed to clot then followed by centrifugation to collect the serum. The serum was used for analysis as recommended by the manufacturers.
# [2] = test system: blood vessels; experiment: In vivo angiogenesis around subcutaneously injected hydrogels (CD31 immunostaining, blood vessel count); settings: hydrogel injected subcutaneously in mice, day 21, CD31 immunostaining, four random regions
# Protocol: as §1
# Subcutaneous injection was carried out, as indicated in example 3, in order to characterize the behavior of the hydrogels after subcutaneous injection and in situ gelation. Animals were sacrificed by cervical dislocation one or three weeks after injection of the hydrogel. The biomaterials (i.e. hydrogel) together with the skin surrounding the injection point were harvested after 7, or 21 days and embedded in paraffin. Histological sections of skin portions associated to the hydrogel were then stained to assess the degradation pattern, cell infiltration (data not shown) and angiogenesis.
# The blood vessels in and around the hydrogels 21 days after implantation were identified by immunolabelling with rabbit anti-CD31 antibody (Abcam, ref ab28364 dilution:1/100) followed by incubation with HRP-conjugated anti-rabbit secondary antibody (Vector MP-7401, dilution:1/2)
# During the regeneration process, the development of neovessels in the remodeling tissue is of major importance. Therefore, immunostaining of CD31, an endothelial cell marker, was performed on day 21 to assess angiogenesis.
# CD31 positive cells were not found inside the hydrogels, showing that the non-degraded hydrogels were bad substrates for blood vessel ingress. Figure 11B depicts the quantification of blood vessels counted manually per 0.2mm^2 at four different random regions in the tissue surrounding each hydrogel. […]
# [3] = test system: CAM of chick embryos (Gallus gallus); experiment: Chick chorioallantoic membrane (CAM) angiogenesis assay; format: in vivo; settings: 20 µl of 500 µg/ml in DMEM on day 13 and 14, evaluated day 17, versus DMEM control
# Protocol: The angiogenesis assay was performed on the CAM of chick embryos (Gallus gallus) (E.A.R.L. Morizeau, Dangers, France). Embryos were incubated at 37°C and 70% humidity to […]. On day 3 of development, 3-5 ml of egg white was withdrawn by punctuating the air chamber with the syringe, and a window was made by cutting the eggshell and sealed with Durapore® tape. On day 13, prepared plastic rings (made from Nunc Thermanox® coverslips, diameter 13 mm and thickness 0.2mm) were placed on the intact CAM. 20 µl of the molecule (concentration 500 µg/ml in DMEM medium) or an equivalent volume of DMEM alone as control were deposited in the center of the plastic rings. The treatment was repeated the following day followed by photo documentation (day 14). On day 17, the eggs were fixed by addition of 2 ml of 4% paraformaldehyde (Antigenfix) for 30 min at room temperature. Imaging was performed with a stereomicroscope (Nikon SMZ800) using a digital camera (Nikon Coolpix 950). The images were scored for morphological changes of blood capillaries such as sprouting and tortuosity (0=normal, 1=overrepresented) by five observers using a blinded screening test (data not shown).
# The angiogenic response was evaluated on day 17 based on two morphological parameters: sprouting, and presence of tortuous vessels (data not shown). […]
# [4] = MALDI-TOF analysis of degradation products released by the hydrogels in PBS; settings: hydrogel, 21-day incubation in PBS at 37°C, MALDI-TOF of the buffer
# Protocol: The degradation products generated during the 21-day incubation of the samples was determined by analyzing the PBS solution in which they were incubated. At day 21 the PBS was collected and analyzed for the degradation products of individual hydrogels by using mass spectroscopy. Studies, performed in triplicates, allowed for the calculation of degradation kinetics.
# In order to assess the fragmentation of the molecules during incubation, the by-products of degradation present in the buffer were analysed by MALDI-TOF (Matrix Assisted Laser Desorption Ionization - Time of Flight) mass spectrometry at the end of the experiment (21 days) (Figures 4 and 5).
# The analyses were carried out on the MALDI-TOF-TOF Ultraflex (Bruker) in positive reflector mode (detection of positively charged species in the form of [M + H] + and [M + Na] + ions).The external calibration of the spectrometer was carried out with a mixture of components in the mass range m / z 700-2500. The matrix used is a solution of 2,4,6 trihydroxyacetophenone at 20 mg / ml in EtOH / NH4 citrate 25 mM. The samples were diluted by a factor of 50 in water before MS analysis.
# [5] = In vitro degradation of the hydrogels (weight loss in PBS); format: physicochemical; settings: hydrogel 1.5% (w/v), PBS 1X, after 3 weeks at 37°C
# Protocol: Hydrogels were prepared with compound 17, compound 20, GNF at a concentration of 1.5% (w/v) by dissolving the powder in sterile phosphate buffered saline solution (PBS 1X, pH 7.4). The suspensions were heated at 65 °C for GNF and 80°C for the compounds 17 and 20. The GNF solution was incubated at 37 °C for 30 min to form a gel, whereas the other molecules formed the gel within 5 min.
# Hydrogels were also prepared from compound A, which was used as a control.
# Hydrogel disks (100 µl) were prepared and were incubated in 7 ml of PBS 1X at 37°C for 21 days. All the hydrogel samples were weighed before incubating with the phosphate buffer (initial weight). The samples were removed at different time points (1, 2, 3, 5, 7, 15, and 21 days), weighed immediately after removing the excess of PBS by gently touching the surface of a tissue (Kimwipes™) and put back in the same solution of PBS.
# The degradation was monitored by measuring the weight loss of the gels after different periods of incubation. After 3 weeks at 37°C, the remaining weights were 65 ± 4 %, 63 ± 1 %, and 55 ± 2 %, for GNF, compound 17 and compound 20, respectively, as shown on Figure 3..
compound,measurement,setting,value
"1,14-bis-tetradecanyl-5'-[(4-methylamide)-1H-1,2,3-triazol-1-yl]-N-3-[1-((β-D-glucopyranoside)-1H-1,2,3-triazole-4-yl)methyl]-5'-deoxy thymidine [compound 20]",toxicity to the vital organs,[1],did not show any toxicity to the vital organs
same,numbers of blood vessels (bv) in the vicinity of the hydrogel,[2],7.95 ± 0.74 bv/0.2 mm2
"Cc1cn([C@H]2C[C@H](O)[C@@H](CO)O2)c(=O)n(Cc2cn([C@@H]3O[C@H](CO)[C@@H](O)[C@H](O)[C@H]3O)nn2)c1=O [GN-1, N-3-[1-((β-D-Glucopyranoside)-1H-1,2,3-triazol-4-yl)methyl] thymidine]",sprouting,[3]; p = 0.0046 (Fisher's exact test),more CAMs that were treated with GN-1 exhibited sprouting and tortuous vessels
same,tortuous vessels,[3]; p = 0.0195 (Fisher's exact test),more CAMs that were treated with GN-1 exhibited sprouting and tortuous vessels
Cc1cn([C@H]2C[C@H](O)[C@@H](Cn3cc(CNC(=O)CCC(F)(F)C(F)(F)C(F)(F)C(F)(F)C(F)(F)C(F)(F)C(F)(F)C(F)(F)F)nn3)O2)c(=O)n(Cc2cn([C@@H]3O[C@H](CO)[C@@H](O)[C@H](O)[C@H]3O)nn2)c1=O [GNF],fragmentation of the molecules during incubation (degradation products),[4],fragmentations of the hydrogel molecules as a result of degradation
same,toxicity to the vital organs,[1],did not show any toxicity to the vital organs
same,remaining weights,[5],65 ± 4%
same,numbers of blood vessels (bv) in the vicinity of the hydrogel,[2],6.10 ± 1.07 bv/0.2 mm2
"Cc1cn([C@H]2C[C@H](O)[C@@H](Cn3cc(CNC(=O)NCCCCCCCCCCCCNC(=O)NCc4cn(C[C@H]5O[C@@H](n6cc(C)c(=O)n(Cc7cn([C@@H]8O[C@H](CO)[C@@H](O)[C@H](O)[C@H]8O)nn7)c6=O)C[C@@H]5O)nn4)nn3)O2)c(=O)n(Cc2cn([C@@H]3O[C@H](CO)[C@@H](O)[C@H](O)[C@H]3O)nn2)c1=O [compound 17, 1,12-bis-dodecanyl-5'-[(4-methylurea)-1H-1,2,3-triazol-1-yl]-N-3-[1-((β-D-glucopyranoside)-1H-1,2,3-triazole-4-yl)methyl]-5'-deoxy thymidine]",fragmentation of the molecules during incubation (degradation products),[4],fragmentations of the hydrogel molecules as a result of degradation
same,toxicity to the vital organs,[1],did not show any toxicity to the vital organs
same,numbers of blood vessels (bv) in the vicinity of the hydrogel,[2],4.30±0.41 bv/0.2 mm2
